Patent US20240299484A1, “DILEUCINE COMPOSITIONS AND METHODS OF USE THEREOF” (Ingenious Ingredients, LP, priority 2023, published 2024)
Marks after values point to notes of the source that are not given here.

What was measured:
Assay type in all cases: in vivo, Swiss Albino mice
[1] = Forelimb grip strength test; conditions: for Forelimb grip strength (gf) Day −0: Day −0 (baseline), mice, n = 8; for Forelimb grip strength (gf) Day −28: Day −28, one hour after treatment, oral once a day for 28 days; for Increase strength over Day −0: Day −28 minus Day −0; for Percentage Increase over control (grip strength): increase vs Exercise Control, 28 days
Description: (§1) Eight 8-week-old male Swiss Albino mice per experimental group were housed in an animal room at a constant temperature (22±3° C.) and humidity (30%-70%) under a 12:12 h light-dark cycle with standard laboratory diet (Purina 5L79, Rat and Mouse 18% protein; PMI Nutrition International, Brentwood, MO, USA). Distilled water was provided ad libitum. All animal experiments were reviewed and approved by the Institutional Animal Ethical Committee (IAEC) of Radiant Research Services Pvt. Ltd (Bangalore, India). All research was conducted in accordance with the guidelines of the committee for the purpose of control and supervision of experiments on animals (CPCSEA Registration Number-1803/PO/RcBi/S/2015/CPCSEA).
(§2) After one week of acclimation, the animals were randomly divided by body weight into different groups (n=8 per group in each test) for oral treatment once a day, at approximately same time each day (+1 hour), for 28 consecutive days: (1) vehicle control; (2) paraxanthine (3) dileucine; (4) paraxanthine+dileucine; (5) L-arginine; (6) L-arginine+dileucine; (7) L-citrulline; and (8) L-citrulline+dileucine. The dose administered to the mice was calculated using US Food and Drug Administration for human equivalence doses (HED), assuming a human weight of 60 kg. The following HED were used in this study: 2,000 mg dileucine (RAMPS™, Ingenious Ingredients, L.P., Lewisville, TX, USA; mouse 411 mg/kg bw), 100 mg paraxanthine, (ENFINITY™, Ingenious Ingredients, L.P Lewisville, TX, USA; mouse dose: 20.5 mg/kg bw/day); 3,000 mg L-arginine (Nanjing Nutrabuilding Bio-tech Co., LTD., No. 270 Jiqingmen Strect, Suning Huigu, Building E6, Room 2105, Nanjing, China 210017; mouse 616.55 mg/kg bw), 3,000 mg L-citrulline (Nanjing Nutrabuilding Bio-tech Co., LTD., No. 270 Jiqingmen Street, Suning Huigu, Building E6, Room 2105, Nanjing, China 210017; mouse 616.55 mg/kg bw). 0.5% Carboxy Methyl Cellulose sodium was used as vehicle and the test item formulations were prepared daily. Dosing was conducted via oral gavage using disposable polypropylene syringes with sterilized stainless steel gavage tubes. The food intake and water consumption were monitored daily, and BW was recorded weekly. The last dose on day 28 was given 1 hour prior to testing.
The forelimb grip strength was measured on day 0 and day 28 by using a stainless-steel grill to assess muscle strength (Orchid Scientific & Innovative India Pvt Ltd, India). Grip strength was measured one hour after treatment. Briefly, each mouse was placed on a grill chamber and the steel bar is inverted; grip strength is measured by recording the time each animal holds the steel bar. The maximum time for each trial was six minutes. Each animal performed three independent trials separated by six minutes intervals and the mean of the three trials was calculated.

total cholesterol (TC) = assay: Blood lipids: total cholesterol; conditions: for TC / TC [mg/dl]: after 28 days of supplementation, mice, n = 8; for TC Change over control [%]: vs Exercise Control, 28 days
Description: as §1, §2
(§3) All animals were euthanized by 95% CO2 after 28 days of following their assigned treatment. Blood was collected immediately after euthanization by the retro-orbital route and was immediately centrifuged at 1500×g for 10 min at 4° C. before having all serum transferred into cryogenic tubes and stored at −80° C.
(§4) Serum and plasma samples were separated by centrifuging the blood at 8000 rpm for 10 mins and analyze the below mentioned biomarkers, Biomarkers: TC, TG, LDL and HDL, CRP, Serum lactate, Ammonia, Glucose, NO, IL-2, IL-6, IL-10. Blood was collected in EDTA tubes for below mentioned biomarkers, Immune health Biomarkers (T helper subsets): TH1, TH2, TH17, Tfh, iTreg.

triglycerides (TG) = assay: Blood lipids: triglycerides; conditions: for TG: after 28 days of supplementation, mice, n = 8; for TG Change over control [%]: vs Exercise Control, 28 days
Description: as §1, §2, §3, §4

[2] = system: high-density lipids (HDL); assay: Blood lipids: HDL; conditions: for HDL Change over control [%]: vs Exercise Control, 28 days
Description: as §1, §2, §3, §4

IL-6 = assay: Inflammatory markers: IL-6; conditions: for IL-6 Change over control [%]: vs Exercise Control, 28 days
Description: as §1, §2, §3, §4

C-reactive protein (CRP) = assay: Inflammatory markers: CRP; conditions: for CRP (mg/L): after 28 days of supplementation and exercise, mice, n = 8; for CRP Change over control [%]: vs Exercise Control, 28 days
Description: as §1, §2, §3, §4

nitric oxide = assay: NO signaling: nitric oxide level; conditions: for Nitric oxide (μmol/L) (mg/L): after 28 days of supplementation and exercise, mice, n = 8; for Nitric oxide Change over control [%]: vs Exercise Control, 28 days
Description: as §1, §2, §3, §4

TH1 = assay: Immune health biomarkers (T helper subsets): TH1; conditions: for TH1(%): T helper subset in blood after 28 days, mice, n = 8; for TH1 Change over control [%]: vs Exercise Control, 28 days
Description: (§5) PMI Nutrition International, Brentwood, MO, USA). Distilled water was provided ad libitum. All animal experiments were reviewed and approved by the Institutional Animal Ethical Committee (IAEC) of Radiant Research Services Pvt. Ltd (Bangalore, India). All research was conducted in accordance with the guidelines of the committee for the purpose of control and supervision of experiments on animals (CPCSEA Registration Number-1803/PO/[…]). […] (1) vehicle control; […] (4) paraxanthine+dileucine; […] The dose administered to the mice was calculated using US Food and Drug Administration for human equivalence doses (HED), assuming a human weight of 60 kg. […] Dosing was conducted via oral gavage using disposable polypropylene syringes with sterilized stainless steel gavage tubes. The food intake and water consumption were monitored daily, and BW was recorded weekly. The last dose on day 28 was given 1 hour prior to testing. Serum and plasma samples were separated by centrifuging the blood at 8000 rpm for 10 mins and analyze the below mentioned biomarkers, Biomarkers: TC, TG, LDL and HDL, CRP, Serum lactate, Ammonia, Glucose, NO, IL-2, IL-6, IL-10. Blood was collected in EDTA tubes for below mentioned biomarkers, Immune health Biomarkers (T helper subsets): […]

TH2 = assay: Immune health biomarkers (T helper subsets): TH2; conditions: for TH2(%): T helper subset in blood after 28 days, mice, n = 8; for TH2 Change over control [%]: vs Exercise Control, 28 days
Description: as §5

Tfh = assay: Immune health biomarkers (T helper subsets): Tfh; conditions: for Tfh(%) (mg/L): T helper subset in blood after 28 days, mice, n = 8; for Tfh Change over control [%]: vs Exercise Control, 28 days
Description: as §1, §2, §4

[3] = after 28 days of supplementation, mice, n = 8
[4] = after 28 days of supplementation and exercise, mice, n = 8

Compound | Forelimb grip strength (gf) Day −0 [1] [gf] | Forelimb grip strength (gf) Day −28 [1] | Increase strength over Day −0 [1] [gf] | Percentage Increase over control (grip strength) [1] [%] | TC Change over control [%] (total cholesterol (TC)) | TG (triglycerides (TG)) [mg/dL] | TG Change over control [%] (triglycerides (TG)) | HDL Change over control [%] [2] [%] | IL-6 (pg/ml) (IL-6; [4]) | IL-6 Change over control [%] (IL-6) | CRP (mg/L) (C-reactive protein (CRP)) | CRP Change over control [%] (C-reactive protein (CRP)) | Nitric oxide (μmol/L) (mg/L) (nitric oxide) | Nitric oxide Change over control [%] (nitric oxide) | TH1(%) (TH1) | TH1 Change over control [%] (TH1) | TH2(%) (TH2) | TH2 Change over control [%] (TH2) | Tfh(%) (mg/L) (Tfh) | Tfh Change over control [%] (Tfh) | also measured
CC(C)C[C@H](NC(=O)[C@@H](N)CC(C)C)C(=O)O [Dileucine, L-Leucyl-L-leucine] | 99.25 | 149.0*** gf | 49.75 | 76 | −6 | 92.66 | −3 | 8 | 343** pg/ml | −7 | 0.63*** mg/L | −18 | 84.83*** μmol/L | 34 | 58.86*** % | −37 | 53.68*** % | 368 | 55.72% | 613 | TC (total cholesterol (TC)): 93.3 mg/dL; HDL [mg/dl] [2, 3]: 37.63* mg/dl
N=C(N)NCCC[C@H](N)C(=O)O [L-Arginine, L-arginine] | 99.75 | 139.13*** gf | 39.38 | 39 | −5 | 94.1 | −2 | 5 | 351.39** pg/ml | −7 | 0.69*** mg/L | −16 | 77.98* μmol/L | 29 | 53.66*** % | −43 | 40.44*** % | 252 | 44.16*** % | 465 | TC (total cholesterol (TC)): 95.43 mg/dL; HDL [2, 3]: 35.86 mg/dL
NC(=O)NCCC[C@H](N)C(=O)O [L-Citrulline, L-citrulline] | 97.63 | 138.5*** gf | 40.87 | 45 | −6 | 94.58 | −2 | 4 | – | −7 | 0.69*** mg/L | −16 | 77.61 µmol/L | 28 | 59.71*** % | −36 | 38.23*** % | 234 | 40.87*** % | 423 | TC [mg/dl] (total cholesterol (TC)): 94.26* mg/dl; HDL [2, 3]: 35.63 mg/dL; IL-6 (IL-6; [4]): 349.52 pg/mL
Cn1c(=O)[nH]c2ncn(C)c2c1=O [Paraxanthine, 1,7-dimethylxanthine] | 98.38 | 148.88*** gf | 50.5 | 79 | −8 | 91.94 | −4 | 4 | 340.6** pg/ml | −8 | 0.64** mg/L | −17 | 84.29*** μmol/L | 33 | 65.68*** % | −30 | 53.63*** % | 368 | 54.96*** % | 603 | TC [mg/dl] (total cholesterol (TC)): 91.66** mg/dl; HDL [2, 3]: 36.36 mg/dL
